Experimental data: patent US6979686B1, “Substituted pyrazoles as p38 kinase inhibitors” (Pharmacia Corporation, priority 2001, dated 2005)
Read-outs that look alike come from different tables or passages of the source.

Target: T1, human p38 kinase alpha (Homo sapiens, UniProt Q16539)
T1 construct: GST (N, cleaved yes); made in house; host or cells: E. coli DH10B
Test: p38 kinase in vitro assay, phosphorylation of biotinylated PHAS-I with 32P-ATP
Format: biochemical
Conditions: for IC50: read-out: P38 alpha kinase IC50
Protocol: The coding region of the human p38a cDNA was obtained by PCR-amplification from RNA isolated from the human monocyte cell line THP.1. […] Random primer, dNTP's and Superscript™ reagents were all purchased from Life-Technologies, Gaithersburg, Mass. The reaction was incubated at 42° C. for 1 hour. Amplification of p38 cDNA was performed by aliquoting 5 μl of the reverse transcriptase reaction into a 100 μl PCR reaction containing the following: 80 μl dH2O, 2 μl 50 mM DNTP's, 1 μl each of forward and reverse primers (50 pmol/μl), 10 μl of 10×buffer and 1 μl Expand™ polymerase (Boehringer Mannheim). The PCR primers incorporated BamHI sites onto the 5′ and 3′ end of the amplified fragment, and were purchased from Genosys. […] The PCR amplification was carried out in a DNA Thermal Cycler (Perkin Elmer) by repeating 30 cycles of 94° C. for 1 minute, 60° C. for 1 minute and 68° C. for 2 minutes. After amplification, excess primers and unincorporated dNTP's were removed from the amplified fragment with a Wizard™ PCR prep (Promega) and digested with BamHI (New England Biolabs). The BamHI digested fragment was ligated into BamHI digested PGEX 2T plasmid DNA (PharmaciaBiotech) using T-4 DNA ligase (New England Biolabs) as described by T. Maniatis, Molecular Cloning: A Laboratory Manual, 2nd ed. […] The ligation reaction was transformed into chemically competent E. coli DH10B cells purchased from Life-Technologies following the manufacturer's instructions. Plasmid DNA was isolated from the resulting bacterial colonies using a Promega Wizard™ miniprep kit.
Expression of Human p38a:
Overnight cultures were grown in-Luria Broth (LB) containing […] ampicillin. The next day, 500 ml of fresh LB was inoculated with 10 ml of overnight culture, and grown in a 2 liter flask at 37° C. with constant shaking until the culture reached an absorbance of 0.8 at 600 nm. Expression of the fusion protein was induced by addition of isopropyl b-D-thiogalactosidse (IPTG) to a final concentration of 0.05 mM. The cultures were shaken for three hours at room temperature, and the cells were harvested by centrifugation. The cell pellets were stored frozen until protein purification.
Purification of p38 Kinase-α:
All chemicals were from Sigma Chemical Co. unless noted. Twenty grams of E. coli cell pellet collected from five 1 L shake flask fermentations was resuspended in a volume of PBS (140 mM NaCl, 2.7 mM KCl, 10 mM Na2HPO4, 1.8 mM KH2PO4, pH 7.3) up to 200 ml. The cell suspension was adjusted to 5 mM DTT with 2 M DTT and then split equally into five 50 ml Falcon conical tubes. The cells were sonnicated (Ultrasonics model W375) with a 1 cm probe for 3×1 minutes (pulsed) on ice. Lysed cell material was removed by centrifugation (12,000×g, 15 minutes) and the clarified supernatant applied to glutathione-sepharose resin (Pharmacia).
Glutathione-sepharose Affinity Chromatography:
The resin was collected by centrifugation (600×g, 5 min) and washed with 2×150 ml PBS/1% Triton X-100, followed by 4×40 ml PBS. To cleave the p38 kinase from the GST-p38 fusion protein, the glutathione-sepharose resin was resuspended in 6 ml PBS containing 250 units thrombin protease (Pharmacia, specific activity>7500 units/mg) and mixed gently for 4 hours at room temperature. The glutathione-sepharose resin was removed by centrifugation (600×g, 5 min) and washed 2×6 ml with PBS. The PBS wash fractions and digest supernatant containing p38 kinase protein were pooled and adjusted to 0.3 mM PMSF.
Mono O Anion Exchange Chromatography:
The thrombin-cleaved p38 kinase was further purified by FPLC-anion exchange chromatography.

[1] = in vitro P38-alpha kinase inhibition

T1 sequence (Q16539 whole entry): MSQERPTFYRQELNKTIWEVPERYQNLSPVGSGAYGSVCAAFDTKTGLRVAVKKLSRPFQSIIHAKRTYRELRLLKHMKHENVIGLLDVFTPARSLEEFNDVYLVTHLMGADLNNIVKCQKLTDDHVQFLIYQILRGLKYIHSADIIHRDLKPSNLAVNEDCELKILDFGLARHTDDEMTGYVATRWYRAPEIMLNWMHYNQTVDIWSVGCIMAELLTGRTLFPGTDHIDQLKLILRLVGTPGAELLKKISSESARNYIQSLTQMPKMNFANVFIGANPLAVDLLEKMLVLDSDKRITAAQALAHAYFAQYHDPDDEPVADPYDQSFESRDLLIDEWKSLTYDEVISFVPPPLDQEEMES

Row | Structure (SMILES) | IC50 (in vitro P38-alpha kinase) [nM] | IC50 [1] [nM] | other results
1 | CC(=O)OC(C)(C)C(=O)NC(Cc1ccccc1)c1[nH]nc(-c2ccc(F)cc2)c1-c1ccncc1 (centres unmarked) [Example B-0834] | – | 1250 | –
2 | O=S(=O)(NCCCc1[nH]nc(-c2ccc(F)cc2)c1-c1ccncc1)c1ccc(-c2ccccc2)cc1 [Example B-1286] | 150 | – | –
3 | O=S(=O)(NCCc1[nH]nc(-c2ccc(F)cc2)c1-c1ccncc1)c1ccc(Cl)cc1 [Example B-1061] | – | 30 | –
4 | CC(NC(=O)NC(Cc1ccccc1)c1[nH]nc(-c2ccc(F)cc2)c1-c1ccncc1)c1ccccc1 (centres unmarked) [Example B-0781] | – | 48000 | –
5 | CC(NS(=O)(=O)c1cccc2cnccc12)c1[nH]nc(-c2ccc(F)cc2)c1-c1ccncc1 (centres unmarked) [Example B-0667] | – | 830 | –
6 | CC(NS(=O)(=O)c1cccc(Br)c1)c1[nH]nc(-c2ccc(F)cc2)c1-c1ccncc1 (centres unmarked) [Example B-0632] | – | < 100 | –
7 | O=C(c1ccc(Cl)cc1Cl)N1CCC(c2[nH]nc(-c3ccc(F)cc3)c2-c2ccncc2)CC1 [Example B-1417] | 69 | – | –
8 | O=S(=O)(NCCc1[nH]nc(-c2ccc(F)cc2)c1-c1ccncc1)c1ccccc1 [Example B-1014] | – | – | P38 alpha kinase % inhib @ conc. (uM) (@ 1.0 uM): 88.0% @
9 | CC(NS(=O)(=O)c1cc(S(=O)(=O)c2ccccc2)cs1)c1[nH]nc(-c2ccc(F)cc2)c1-c1ccncc1 (centres unmarked) [Example B-0661] | – | < 100 | –
10 | Cc1noc(C)c1C(=O)NCc1[nH]nc(-c2ccc(F)cc2)c1-c1ccncc1 [Example B-0304] | 550 | – | –
11 | Cc1cccc(Cl)c1S(=O)(=O)NC(C)c1[nH]nc(-c2ccc(F)cc2)c1-c1ccncc1 (centres unmarked) [Example B-0644] | – | 58 | –
12 | Cc1cccc(C)c1NC(=O)NCCCc1[nH]nc(-c2ccc(F)cc2)c1-c1ccncc1 [Example B-1216] | – | – | P38 alpha kinase % inhib @ conc. (@ 1.0 uM): 88.0% @
13 | CCCNC(=O)NC(Cc1ccccc1)c1[nH]nc(-c2ccc(F)cc2)c1-c1ccncc1 (centres unmarked) [Example B-0780] | – | 1100 | –
14 | O=C(c1ccc(Cl)c(Cl)c1)N1CCC(c2[nH]nc(-c3ccc(F)cc3)c2-c2ccncc2)CC1 [Example B-1418] | 1010 | – | –
15 | CCN(Cc1c(F)cccc1Cl)C(=O)Cn1nc(-c2ccc(F)cc2)c(-c2ccncc2)c1C [Example B-2367] | – | – | P38 alpha kinase % inhib @ conc. (@ 10.0 uM): 46.0% @
16 | O=C(c1cccc(Cl)c1Cl)N1CCC(c2[nH]nc(-c3ccc(F)cc3)c2-c2ccncc2)CC1 [Example B-1416] | 140 | – | –
17 | CC(NS(=O)(=O)c1cccc2nonc12)c1[nH]nc(-c2ccc(F)cc2)c1-c1ccncc1 (centres unmarked) [Example B-0654] | – | 5970 | –
18 | C[C@@H](NS(=O)(=O)c1cc(Cl)cc(Cl)c1)c1[nH]nc(-c2ccc(F)cc2)c1-c1ccncc1 [Example B-0464] | – | < 100 | –
19 | Cc1c(-c2ccncc2)c(-c2ccc(F)cc2)nn1CC(=O)Nc1ccc(CSc2ccc(Cl)cc2)cc1 [Example B-2461] | – | – | P38 alpha kinase IC50, uM or % inhib @ conc. (uM): % inhib (@ 10.0 uM): 67.0% @
20 | Cc1ccc(C)c(C(=O)c2ccccc2NC(=O)Cn2nc(-c3ccc(F)cc3)c(-c3ccncc3)c2C)c1 [Example B-2443] | – | – | P38 alpha kinase IC50, uM or % inhib @ conc. (uM): % inhib (@ 10.0 uM): 84.0% @
21 | CCCCS(=O)(=O)N1CCC(c2[nH]nc(-c3ccc(F)cc3)c2-c2ccncc2)CC1 [Example B-1430] | 750 | – | –
22 | CC(NS(=O)(=O)c1ccc(Cl)cc1Cl)c1[nH]nc(-c2ccc(F)cc2)c1-c1ccncc1 (centres unmarked) [Example B-0625] | – | 23 | –

Row | Structure (SMILES) | IC50 (in vitro P38-alpha kinase) [nM] | IC50 [1] [nM] | other results
23 | O=S(=O)(NCCCc1[nH]nc(-c2ccc(F)cc2)c1-c1ccncc1)c1ccc(F)cc1 [Example B-1190] | – | – | P38 alpha kinase % inhib @ conc. (uM) (@ 1.0 uM): 78.0% @
24 | O=S(=O)(NCCc1[nH]nc(-c2ccc(F)cc2)c1-c1ccncc1)c1ccc(F)c(Cl)c1 [Example B-1094] | – | 13 | –
25 | O=S(=O)(NC(Cc1ccccc1)c1[nH]nc(-c2ccc(F)cc2)c1-c1ccncc1)C(F)(F)F (centres unmarked) [Example B-0713] | – | 4300 | –
26 | Cc1c(-c2ccncc2)c(-c2ccc(F)cc2)nn1CC(=O)NCCCCCCN(C)C [Example B-2287] | 2560 | – | –
27 | CC(C)OC(=O)NCCc1[nH]nc(-c2ccc(F)cc2)c1-c1ccncc1 [Example B-1057] | – | – | P38 alpha kinase % inhib @ conc. (uM) (@ 1.0 uM): 85.0% @
28 | COc1cccc(CC(=O)NCCCc2[nH]nc(-c3ccc(F)cc3)c2-c2ccncc2)c1 [Example B-1178] | – | – | P38 alpha kinase % inhib @ conc. (uM) (@ 1.0 uM): 92.0% @
29 | O=C(NCCCc1[nH]nc(-c2ccc(F)cc2)c1-c1ccncc1)NCc1ccccc1 [Example B-1208] | – | – | P38 alpha kinase % inhib @ conc. (@ 1.0 uM): 82.0% @
30 | CC(Oc1ccccc1)C(=O)NCCc1[nH]nc(-c2ccc(F)cc2)c1-c1ccncc1 (centres unmarked) [Example B-1009] | – | – | P38 alpha kinase % inhib @ conc. (uM) (@ 1.0 uM): 80.0% @
31 | CC(NC(=O)c1ccccc1Br)c1[nH]nc(-c2ccc(F)cc2)c1-c1ccncc1 (centres unmarked) [Example B-0703] | – | 120 | –
32 | N#Cc1cccc(C(=O)NCc2[nH]nc(-c3ccc(F)cc3)c2-c2ccncc2)c1 [Example B-0023] | – | – | inhibition at 1 µM (@ 1.0 uM, read-out: P38 alpha kinase % inhib @ conc.): 90%
33 | O=S(=O)(C=Cc1ccccc1)NC(Cc1ccccc1)c1[nH]nc(-c2ccc(F)cc2)c1-c1ccncc1 (centres unmarked) [Example B-0710] | – | 1990 | –
34 | O=C(NCCc1[nH]nc(-c2ccc(F)cc2)c1-c1ccncc1)c1c(F)cc(F)cc1F [Example B-1135] | – | 230 | –
35 | Cc1c(-c2ccncc2)c(-c2ccc(F)cc2)nn1CC(=O)NCC(=O)c1ccccc1 [Example B-2317] | 1000 | – | –
36 | O=S(=O)(NCCc1[nH]nc(-c2ccc(F)cc2)c1-c1ccncc1)c1ccc(-c2ccccn2)s1 [Example B-1111] | – | 190 | –
37 | O=C(c1cccc(Br)c1)N1CCC(c2[nH]nc(-c3ccc(F)cc3)c2-c2ccncc2)CC1 [Example B-1365] | 170 | – | –
38 | COc1ccc(CCN(CCC#N)C(=O)Cn2nc(-c3ccc(F)cc3)c(-c3ccncc3)c2C)cc1OC [Example B-2403] | – | – | P38 alpha kinase IC50, uM or % inhib @ conc. (uM): % inhib (@ 100.0 uM): 72% @
39 | CCCOC(=O)NC(Cc1ccccc1)c1[nH]nc(-c2ccc(F)cc2)c1-c1ccncc1 (centres unmarked) [Example B-0747] | – | 1100 | –
40 | CNC(=O)N1CCC(c2[nH]nc(-c3ccc(F)cc3)c2-c2ccncc2)CC1 [Example B-1378] | 20 | – | –
41 | O=S(=O)(NCCc1[nH]nc(-c2ccc(F)cc2)c1-c1ccncc1)c1ccccc1C(F)(F)F [Example B-1086] | – | < 100 | –
42 | CC(C)NC(=O)NCCc1[nH]nc(-c2ccc(F)cc2)c1-c1ccncc1 [Example B-0937] | – | – | P38 alpha kinase % inhib @ conc. (uM) (@ 1.0 uM): 64.0% @
43 | Cc1c(-c2ccncc2)c(-c2ccc(F)cc2)nn1CC(=O)Nc1ccccc1F [Example B-2432] | – | – | P38 alpha kinase IC50, uM or % inhib @ conc. (uM): % inhib (@ 10.0 uM): 86.0% 2
44 | CC(NC(=O)c1ccc(Cl)cc1)c1[nH]nc(-c2ccc(F)cc2)c1-c1ccncc1 (centres unmarked) [Example B-0670] | – | 3150 | –

More lines, main results first:

Row | IC50 (in vitro P38-alpha kinase) [nM] | IC50 [1] [nM] | Structure (SMILES) | other results
45 | 180 | – | O=C(NCCCc1[nH]nc(-c2ccc(F)cc2)c1-c1ccncc1)c1c(F)cccc1C(F)(F)F [Example B-1338] | –
46 | 50 | – | COCCNC(=O)NCCCc1[nH]nc(-c2ccc(F)cc2)c1-c1ccncc1 [Example B-1311] | –
47 | 470 | – | O=S(=O)(NCCCc1[nH]nc(-c2ccc(F)cc2)c1-c1ccncc1)c1ccc(Cl)c(Cl)c1 [Example B-1270] | –
48 | 19 | – | O=C(NCCCc1[nH]nc(-c2ccc(F)cc2)c1-c1ccncc1)c1cc(F)c(F)cc1F [Example B-1350] | –
49 | 1050 | – | O=S(=O)(NCCCc1[nH]nc(-c2ccc(F)cc2)c1-c1ccncc1)c1ccccc1C(F)(F)F [Example B-1263] | –
50 | – | 740 | COCC(=O)NC(Cc1ccccc1)c1[nH]nc(-c2ccc(F)cc2)c1-c1ccncc1 (centres unmarked) [Example B-0842] | –
51 | – | 1490 | O=C(NCCc1[nH]nc(-c2ccc(F)cc2)c1-c1ccncc1)c1cc2ccccc2s1 [Example B-1124] | –
52 | 160 | – | Cc1noc(C)c1C(=O)NCCCc1[nH]nc(-c2ccc(F)cc2)c1-c1ccncc1 [Example B-1358] | –
53 | – | 440 | O=C(NCCc1[nH]nc(-c2ccc(F)cc2)c1-c1ccncc1)c1ccc(Cl)cc1Cl [Example B-1144] | –
